These results are taken from publication PMC8745124, “The Potential Antimicrobial Action of Human Mucin 7 15-Mer Peptide and Its Metal Complexes” (International Journal of Molecular Sciences, 2021).

In brackets after ≈: the same amount, converted by molar mass. Where two headings read alike, the source gives them in different places. No end group written: not given here.

Series [1] deals with E. coli. The conditions noted are these: Table S7, cited from earlier work. The procedure: (§1) page 13: Table S5. Experimentally measured molar extinction coefficients (ε) and absorbance maxima (λmax) for L1, L2 and L3 which concentration was determined by UV-Vis. Solvent HEPES buffer (50 mM. I = 0.16 M).Path length = 1 cm.T = 25°C. λmax [nm] ε [M-1cm-1] L1 275.5 1076 L2 280 1062 L3 275.5 1077 Table S6. Antimicrobial activity of the […] (L1), […] (L2) and […] (L3) and their metal(II) complexes against pathogenic microorganisms. Values are the average of three independent experiments performed in three wells. Ligands/ E. faecalis S. epidermidis E. coli ...

Series [2] deals with P. aeruginosa. The conditions noted are these: Table S7, cited from earlier work. The procedure: as §1
Series [3] relates to E. faecalis. The conditions noted are these: Table S7, cited from earlier work. The source says: (§2) Values are the average of three independent experiments performed in three wells.
Series [4] deals with C. albicans. The arrangement: method as in 2 sources, one per row (each row's own in cited_ref): ref [33] (a number printed in a supplementary file, which may have a reference list of its own: not looked up in the article's list) ||| ref [36] (a number printed in a supplementary file, which may have a reference list of its own: not looked up in the article's list). The following applies: Table S7; ref [36]; cited from earlier work.
Excerpt: as §2

For series [5], the system named is P. aeruginosa ATCC 15422. The class given is cell-based, Pseudomonas aeruginosa. The conditions noted are these: ATCC 15422, 24 h. The procedure: (§3) The antimicrobial properties of three peptides (L1, L2, L3) and metal(II) complexes (molar ratio, 1:1) were tested on human pathogenic strains. E. coli ATCC 25922, E. faecalis ATCC 29212, P. aeruginosa ATCC 15422, and S. epidermidis KCTC 1917 were grown at 37 °C in Luria Bertani Broth (LB; 10 g/L bacto-tryptone, 5 g/L bacto-yeast extract, 10 g/L NaCl). The C. albicans […] was grown in a 6.7 g/L yeast nitrogen base (YNB) broth (Difco Laboratories) containing 2% D-glucose at 37 °C. The minimum inhibitory concentration (MIC) values of the peptides and their metal(II) complexes were determined using the microdilution broth method in 96-well microplates (Sarstedt, Nümbrecht, Germany). The serial dilutions of tested compounds (0–500 µM) were dissolved in LB medium for bacteria and YNB medium for C. albicans. The inoculum (2.5 µL) of each strain (10^8 CFU mL^−1) was placed into each well containing 200 µL of serial dilutions of the tested peptides and their metal(II) complexes. […] Bacteria and C. albicans incubated with metal ions were used as additional controls. After 24 h of incubation at 37 °C, the optical density at 600 nm of each well was measured using a multifunctional microplate reader (Synergy™ H1, BioTek, Winooski, VT, USA).

Series [6] is classed as physicochemical. The source says: Distribution profiles for Cu(II) and Zn(II) complexes calculated based on titrations are depicted in Figure 1. Complexes of L1 with Zn(II) were precipitated in the experimental concentration used for potentiometry above pH 9, while for L2 and L3 complexes were insoluble above pH 7. For copper complexes, precipitation was not observed at any experimental pH value.
Based on the experimental curves, it was possible to determine stability constants only for some complex species (ZnH3L and ZnHL for L2 and ZnH4L, ZnH3L and ZnHL for L3 ligand). […] Based on the competition diagram, Figure 3A, it could be assumed that all His residues are involved in the coordination of the Zn(II) ion directly or indirectly through the steric effect. The L3 ligand has the best affinity to metal ions already in an acidic environment and throughout the range of the tested pH. […] It could be concluded that although L1 and L2 have the same number of histidyl residues, their mutual position affects the effectiveness of metal ion binding at a given pH value. Above pH 6.5, L1 binds the Zn(II) with higher stability than that observed for L2.
Zinc complexes were not soluble above pH 9 and 7 for L1 and L2, L3, respectively. It was surprising that upon contact with the […] n-octanol phase, Zn(II)/L1 complexes formed in the water were precipitated, which prevented further measurement of the partition coefficient logPo/w. This undoubtedly proves the hydrophilic nature of Zn (II)/L1 complexes. In the case of zinc complexes of the remaining ligands, no precipitate was observed, so experimental values of logPo/w were determined. In comparison to free ligands, the lipophilicity of Cu(II) complexes is lower for all studies’ systems. For L2 and L3, and their Zn(II) complex forms, we observed a slight difference in the partition coefficient concerning the ligands themselves, a slight decrease in lipophilicity in the case of Zn(II)/L2 complexes, and an increase in the case of Zn(II)/L3. […]

Series [7] relates to E. faecalis ATCC 29212. The class given is cell-based, Enterococcus faecalis. The following applies: ATCC 29212, 24 h. The procedure:
as §3

The test system of series [8] is C. albicans ATCC 10231. The class given is cell-based, Candida albicans. The conditions noted are these: ATCC 10231, 24 h. The procedure: as §3
For series [9], the system named is E. coli ATCC 25922. The class given is cell-based, Escherichia coli. The conditions noted are these: ATCC 25922, 24 h. The procedure: as §3
Series [10] deals with S. epidermidis KCTC 1917. The class given is cell-based, Staphylococcus epidermidis. The following applies: KCTC 1917, 24 h. The procedure: as §3
Series [11] concerns the target Tyr9 (position 9, …). The series is described as follows: potentiometry. The conditions noted are these: 25 ± 0.2 °C (298 K), I = 0.1 M (KCl), none (HCl/KOH titration under Ar).
Series [12] addresses Lys1 (position 1, -----KSAFEL). The experiment in a line: potentiometry. The conditions noted are these: 25 ± 0.2 °C (298 K), I = 0.1 M (KCl), none (HCl/KOH titration under Ar).
Series [13] addresses Nterm1 (position 1, -----KSAFEL). The experiment in a line: potentiometry. The conditions noted are these: 25 ± 0.2 °C (298 K); I = 0.1 M (KCl); none (HCl/KOH titration under Ar); free peptide, no metal; ligand 1.0 × 10^-3 M (the Table 2 caption says 0.0005 M).
Series [14] has as its target His14 (position 14, YGLLAHQ----). The experiment in a line: potentiometry. The following applies: 25 ± 0.2 °C (298 K), I = 0.1 M (KCl), none (HCl/KOH titration under Ar).
Series [15] deals with His8 (position 8, …). The experiment in a line: potentiometry. The conditions noted are these: 25 ± 0.2 °C (298 K); I = 0.1 M (KCl); none (HCl/KOH titration under Ar); free peptide, no metal; ligand 1.0 × 10^-3 M (the Table 2 caption says 0.0005 M).
For series [16], the target named is Tyr9 (position 9, …). The experiment in a line: potentiometry. The following applies: 25 ± 0.2 °C (298 K), I = 0.1 M (KCl), none (HCl/KOH titration under Ar). The source holds these as a separate data set.
The target in series [17] is Nterm1 (position 1, -----KSHFEL). The experiment in a line: potentiometry. The conditions noted are these: 25 ± 0.2 °C (298 K); I = 0.1 M (KCl); none (HCl/KOH titration under Ar); free peptide, no metal; ligand 1.0 × 10^-3 M (the Table 2 caption says 0.0005 M).
For series [18], the target named is Lys1 (position 1, -----KSHFEL). The experiment in a line: potentiometry. The conditions noted are these: 25 ± 0.2 °C (298 K), I = 0.1 M (KCl), none (HCl/KOH titration under Ar).
Series [19] has as its target His3 (position 3, ---KSHFELPA). The experiment in a line: potentiometry. The conditions noted are these: 25 ± 0.2 °C (298 K); I = 0.1 M (KCl); none (HCl/KOH titration under Ar); free peptide, no metal; ligand 1.0 × 10^-3 M (the Table 2 caption says 0.0005 M).
Series [20] has as its target His3 (position 3, ---KSHFELPH). The experiment in a line: potentiometry. The conditions noted are these: 25 ± 0.2 °C (298 K); I = 0.1 M (KCl); none (HCl/KOH titration under Ar); free peptide, no metal; ligand 1.0 × 10^-3 M (the Table 2 caption says 0.0005 M).
Series [21] deals with His8 (position 8, …). The experiment in a line: potentiometry. The following applies: 25 ± 0.2 °C (298 K); I = 0.1 M (KCl); none (HCl/KOH titration under Ar); free peptide, no metal; ligand 1.0 × 10^-3 M (the Table 2 caption says 0.0005 M). The source holds these as a separate data set.
[22] abbreviates: Cu(II)-bound mononuclear complex (4N coordination), metal:ligand 1:1.1 and 1:2.
The mark [23] stands for this setting: free peptide, no metal, ligand 1.0 × 10^-3 M (the Table 2 caption says 0.0005 M).

As to `O=C(O)c1cn(C2CC2)c2cc(N3CCNCC3)c(F)cc2c1=O` [Ciprofloxacin], the results for the MIC in series [1] (ref [33]) and in series [2] (ref [33]) were 0.08 µg/mL (≈ 0.241 µM) and 0.16 µg/mL (≈ 0.483 µM), respectively.

As to `CNC(C)C1CCC(N)C(OC2C(N)CC(N)C(OC3OCC(C)(O)C(NC)C3O)C2O)O1` (stereo not shown) [Gentamicin], the MIC in series [1] (ref [33]) is not below 2.50 µg/mL; in [2] (ref [33]) it was 0.31 µg/mL (≈ 0.649 µM); in series [3] (ref [33]), not below 2.50 µg/mL.

For Clavanin B, the figures for the MIC in series [1] (ref [36]), in series [4] and in series [3] (ref [36]) were 256 µg/mL, 64 µg/mL and 256 µg/mL, respectively.

Consider Clavanin D, for which the MIC in series [1] (ref [36]) is 64 µg/mL; in [4] it was 16 µg/mL; in series [3] (ref [36]), 128 µg/mL.

Turning to Gramicidin S, the MIC was 50 µg/mL in [1] (ref [35]), 50 µg/mL in series [2] (ref [35]) and 6.25 µg/mL in [3] (ref [35]).

As for KSAFELPHYGLLAHQ [L1], the MIC in series [5] was determined as 285 ± 2.6 µM; in series [7], 145 ± 3.1 µM; in series [8], 436 ± 2.4 µM; in series [9], 412 ± 2.4 µM; in [10], 132 ± 1.6 µM. The solubility in water result in series [6] is recorded as “soluble in water”.

As for KSHFELPAYGLLAHQ [L2], the MIC in series [5] came out at 302 ± 2.8 µM; in series [7] it was 163 ± 2.2 µM; in series [8] it was 469 ± 1.4 µM; in series [9], 416 ± 0.5 µM; in series [10], 147 ± 1.6 µM. In addition, the solubility in water result in series [6] is on record as “soluble in water”.

Regarding KSHFELPHYGLLAHQ [L3], the MIC in series [5] is 313 ± 2.5 µM; in [7], 241 ± 1.6 µM; in series [8] it was more than 888 µg/mL; in series [9] it was more than 888 µg/mL; in series [10], 210 ± 2.6 µM. In [6], the solubility in water result is listed as “soluble in water”.

On to Polymyxin, for which the minimum inhibitory concentration (MIC) in series [1] (ref [34]) is 1 µg/mL; in [2] (ref [34]), 1 µg/mL; in series [3] (ref [34]) it was more than 16 µg/mL.

Consider KSAFELPHYGLLAHQ [MUC7 15-mer peptide analogue L1 (KSAFELPHYGLLAHQ) (Homo sapiens (synthetic peptide); H3A)], for which the pKa was found to be 9.61 in series [11] (setting [22]); 9.44 in [11] (setting [23]); 10.86 in series [12] (setting [22]); 9.92 in [12] (setting [23]); 7.59 in series [13]; 6.62 in [14] (setting [23]). Moreover, in series [15], the pKa was 5.98.

Turning to KSHFELPAYGLLAHQ [MUC7 15-mer peptide analogue L2 (KSHFELPAYGLLAHQ) (Homo sapiens (synthetic peptide); H8A)], the pKa in series [16] (setting [22]) came out at 9.43; in series [16] (setting [23]) it was 9.58; in series [17] it was 7.42; in series [18] (setting [22]) it was 10.06; in series [18] (setting [23]), 10.50; in [19] it was 5.62. Moreover, the pKa was 6.46 in series [14] (setting [22]) and 6.72 in series [14] (setting [23]).

For KSHFELPHYGLLAHQ [MUC7 15-mer peptide L3 (KSHFELPHYGLLAHQ, mother peptide) (Homo sapiens (synthetic peptide))], the pKa in series [17] was 7.36; in series [18] (setting [22]), 9.85; in series [18] (setting [23]) it was 10.01; in series [11] (setting [22]) it was 9.62; in series [11] (setting [23]), 9.35; in [20], 5.40. The pKa in series [14] (setting [23]) is recorded as 6.75; in series [21], 6.34.
